Tested on: 171881-019-R-J1-PDC tumor spheroids, viability
Assay: Anticancer human tumor 171881-019-R-J1-PDC patient-derived invasive breast carcinoma cell line growth inhibition [GQUAD]
Conditions: spheroids with HUVEC and MSC; for IC50: curve of first compound; for viability, T/C: stronger effect = lower value; active means viability on the fitted dose curve at most 10% of control; inactive means the rest
Method in brief: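 Viability of tumor cells grown as complex spheroids with endothelial and stromal cells, exposed to drug combinations. Top concentration at or near clinical Cmax (else 10 microM), diluted in half-log increments.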

[1] = second compound 0.0316 µM, first compound 0.0316 µM
[2] = second compound 0.0316 µM, first compound 0.1 µM
[3] = second compound 0.0316 µM, first compound 0.316 µM
[4] = second compound 0.0316 µM, first compound 1 µM
[5] = second compound 0.0316 µM, first compound 3.16 µM
[6] = second compound 0.0316 µM, first compound 10 µM
[7] = second compound 0.1 µM, first compound 0.0316 µM
[8] = second compound 0.1 µM, first compound 0.1 µM
[9] = second compound 0.1 µM, first compound 0.316 µM
[10] = second compound 0.1 µM, first compound 1 µM
[11] = second compound 0.1 µM, first compound 3.16 µM
[12] = second compound 0.1 µM, first compound 10 µM
[13] = second compound 0.316 µM, first compound 0.0316 µM
[14] = second compound 0.316 µM, first compound 0.1 µM
[15] = second compound 0.316 µM, first compound 0.316 µM
[16] = second compound 0.316 µM, first compound 1 µM
[17] = second compound 0.316 µM, first compound 3.16 µM
[18] = second compound 0.316 µM, first compound 10 µM
[19] = second compound 1 µM, first compound 0.0316 µM
[20] = second compound 1 µM, first compound 0.1 µM
[21] = second compound 1 µM, first compound 0.316 µM
[22] = second compound 1 µM, first compound 1 µM
[23] = second compound 1 µM, first compound 3.16 µM
[24] = second compound 1 µM, first compound 10 µM
[25] = second compound 3.16 µM, first compound 0.0316 µM
[26] = second compound 3.16 µM, first compound 0.1 µM
[27] = second compound 3.16 µM, first compound 0.316 µM
[28] = second compound 3.16 µM, first compound 1 µM
[29] = second compound 3.16 µM, first compound 3.16 µM
[30] = second compound 3.16 µM, first compound 10 µM
[31] = second compound 10 µM, first compound 0.0316 µM
[32] = second compound 10 µM, first compound 0.1 µM
[33] = second compound 10 µM, first compound 0.316 µM
[34] = second compound 10 µM, first compound 1 µM
[35] = second compound 10 µM, first compound 3.16 µM
[36] = second compound 10 µM, first compound 10 µM
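Wherever viability, T/C is given: 100% = DMSO vehicle control viability.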

C=CC(=O)N1CCN(c2nc(=O)n(-c3c(C)ccnc3C(C)C)c3nc(-c4c(O)cccc4F)c(F)cc23)C(C)C1 (stereo not drawn) + Cc1[nH]c2ccc(F)cc2c1-c1nc2c3cccnc3c3ncccc3c2[nH]1
9550 nM: IC50 (second compound 0.1 µM)
7980 nM: IC50 (second compound 1 µM)
8670 nM: IC50 (second compound 0.316 µM)
inactive: viability, T/C [1] 92.1% | viability, T/C [2] 91.5% | viability, T/C [3] 84.8% | viability, T/C [4] 109% | viability, T/C [5] 90% | viability, T/C [6] 46.5% | viability, T/C [7] 83% | viability, T/C [8] 92% | viability, T/C [9] 101% | viability, T/C [10] 112% | viability, T/C [11] 87.9% | viability, T/C [12] 48.4% | viability, T/C [13] 100% | viability, T/C [14] 94.2% | viability, T/C [15] 91.4% | viability, T/C [16] 104% | viability, T/C [17] 92.8% | viability, T/C [18] 43.7% | viability, T/C [19] 84.9% | viability, T/C [20] 80.1% | viability, T/C [21] 76.2% | viability, T/C [22] 79.5% | viability, T/C [23] 85.4% | viability, T/C [24] 42.4% | viability, T/C [25] 21.9% | viability, T/C [26] 16.6% | viability, T/C [27] 26.8% | viability, T/C [28] 21.9% | viability, T/C [29] 24.5% | viability, T/C [30] 16% | viability, T/C [31] 38.5% | viability, T/C [32] 41.4% | viability, T/C [33] 41.6% | viability, T/C [34] 47.6% | viability, T/C [35] 44.9% | viability, T/C [36] 34.1%
9200 nM: IC50 (second compound 0.0316 µM)
< 31.6 nM: IC50 (second compound 3.16 µM) | IC50 (second compound 10 µM)

C=CCn1c(=O)c2cnc(Nc3ccc(N4CCN(C)CC4)cc3)nc2n1-c1cccc(C(C)(C)O)n1 + Cc1cnc(CNC(=O)c2c(=O)c3ccc(N4CCCN(C)CC4)nc3n3c2sc2ccccc23)cn1
428 nM: IC50 (second compound 0.316 µM)
496 nM: IC50 (second compound 1 µM)
inactive: viability, T/C [1] 106% | viability, T/C [2] 84.2% | viability, T/C [3] 74.9% | viability, T/C [4] 36.3% | viability, T/C [5] 19.9% | viability, T/C [6] 23.3% | viability, T/C [7] 72.9% | viability, T/C [8] 76% | viability, T/C [9] 60.6% | viability, T/C [10] 37.3% | viability, T/C [11] 22.6% | viability, T/C [12] 22.2% | viability, T/C [13] 72.1% | viability, T/C [14] 68.6% | viability, T/C [15] 55.7% | viability, T/C [16] 34.3% | viability, T/C [17] 26.1% | viability, T/C [18] 24.8% | viability, T/C [19] 66.5% | viability, T/C [20] 60.4% | viability, T/C [21] 56.6% | viability, T/C [22] 41.3% | viability, T/C [23] 31.1% | viability, T/C [24] 28.1% | viability, T/C [25] 66.1% | viability, T/C [26] 58% | viability, T/C [27] 58.5% | viability, T/C [28] 42.3% | viability, T/C [29] 36.6% | viability, T/C [30] 35.3% | viability, T/C [31] 57.4% | viability, T/C [32] 54.6% | viability, T/C [33] 50.2% | viability, T/C [34] 48.7% | viability, T/C [35] 36.4% | viability, T/C [36] 36%
652 nM: IC50 (second compound 0.0316 µM)
566 nM: IC50 (second compound 3.16 µM)
358 nM: IC50 (second compound 10 µM)
541 nM: IC50 (second compound 0.1 µM)

COc1cccc2c1C(=O)c1c(O)c3c(c(O)c1C2=O)CC(O)(C(=O)CO)CC3OC1CC(N)C(O)C(C)O1 (stereo not drawn) + Cc1[nH]c2ccc(F)cc2c1-c1nc2c3cccnc3c3ncccc3c2[nH]1
148 nM: IC50 (second compound 0.1 µM)
117 nM: IC50 (second compound 1 µM)
active: viability, T/C [5] 0.24% | viability, T/C [6] 0.22% | viability, T/C [11] 0.15% | viability, T/C [12] 0.52% | viability, T/C [17] 0.13% | viability, T/C [18] 0.5% | viability, T/C [23] 0.3% | viability, T/C [24] 0.77% | viability, T/C [28] 9.24% | viability, T/C [29] 0.43% | viability, T/C [30] 0.81% | viability, T/C [35] 0.93% | viability, T/C [36] 0.93%
inactive: viability, T/C [1] 89.8% | viability, T/C [2] 51.9% | viability, T/C [3] 38.1% | viability, T/C [4] 16.4% | viability, T/C [7] 85.3% | viability, T/C [8] 55.3% | viability, T/C [9] 37.9% | viability, T/C [10] 16.5% | viability, T/C [13] 82.8% | viability, T/C [14] 56.4% | viability, T/C [15] 38.7% | viability, T/C [16] 13.9% | viability, T/C [19] 76.2% | viability, T/C [20] 47% | viability, T/C [21] 40.3% | viability, T/C [22] 14.7% | viability, T/C [25] 22.2% | viability, T/C [26] 17.1% | viability, T/C [27] 18.2% | viability, T/C [31] 38% | viability, T/C [32] 38.9% | viability, T/C [33] 23.1% | viability, T/C [34] 16.5%
< 31.6 nM: IC50 (second compound 3.16 µM) | IC50 (second compound 10 µM)
135 nM: IC50 (second compound 0.0316 µM)
156 nM: IC50 (second compound 0.316 µM)

COc1cccc2c1C(=O)c1c(O)c3c(c(O)c1C2=O)CC(O)(C(=O)CO)CC3OC1CC(N)C(O)C(C)O1 (stereo not drawn) + Cc1cnc(CNC(=O)c2c(=O)c3ccc(N4CCCN(C)CC4)nc3n3c2sc2ccccc23)cn1
159 nM: IC50 (second compound 0.1 µM)
inactive: viability, T/C [1] 70.5% | viability, T/C [2] 54.8% | viability, T/C [3] 39% | viability, T/C [4] 13.5% | viability, T/C [7] 70.2% | viability, T/C [8] 57.4% | viability, T/C [9] 37.8% | viability, T/C [10] 13.7% | viability, T/C [13] 62.9% | viability, T/C [14] 59.9% | viability, T/C [15] 38.7% | viability, T/C [16] 11.7% | viability, T/C [19] 61.8% | viability, T/C [20] 53.2% | viability, T/C [21] 41.2% | viability, T/C [22] 11.4% | viability, T/C [25] 59.1% | viability, T/C [26] 52.5% | viability, T/C [27] 39.3% | viability, T/C [28] 10.6% | viability, T/C [31] 59.9% | viability, T/C [32] 55.9% | viability, T/C [33] 35.3%
153 nM: IC50 (second compound 0.0316 µM)
169 nM: IC50 (second compound 0.316 µM)
155 nM: IC50 (second compound 1 µM)
139 nM: IC50 (second compound 3.16 µM)
138 nM: IC50 (second compound 10 µM)
active: viability, T/C [5] 0.14% | viability, T/C [6] 0.9% | viability, T/C [11] 0.14% | viability, T/C [12] 0.43% | viability, T/C [17] 0.32% | viability, T/C [18] 0.4% | viability, T/C [23] 0.12% | viability, T/C [24] 0.16% | viability, T/C [29] 0.2% | viability, T/C [30] 0.14% | viability, T/C [34] 9.6% | viability, T/C [35] 0.2% | viability, T/C [36] 0.69%

From PubChem BioAssay AID2060498 (Molecular Pharmacology Branch, DTP, NCI, 2025)
